Experimental data from US9289607B2, “Urgency therapy with neuromodulation and C-afferent nerve desensitization” (MEDTRONIC, INC., priority 2010, dated 2016).

Columns and labels:
Assay type in all cases: in vivo, Sprague-Dawley rats
[1] = Behaviour after subcutaneous capsaicin injection
Description: (§1) Thirty-two rats were chronically treated with capsaicin or vehicle (e.g., solution without capsaicin added). Capsaicin (Sigma-Aldrich, St. Louis, Mo.) was administered to the rats in a vehicle solution containing approximately 20 milligrams (mg)/milliliters (mL) capsaicin in a mixture of approximately 10% ethanol, approximately 10% Tween 80 and approximately 80% physiological saline. For each of the rats, capsaicin (125 mg/kg) was given subcutaneously in the hindlimb in divided doses on 2 consecutive days: on the first day, a first dose of 25 mg/kg was administered, and, twelve hours later, a second dose of 50 mg/kg was administered, and on the second day, a third dose of 50 mg/kg was administered. Injections were performed under isoflurane anesthesia. Control rats received a corresponding volume of vehicles. Experiments on the effect of neurostimulation on rhythmic bladder contraction were conducted approximately 4 days after injection of the third dose was administered. To evaluate the effectiveness of capsaicin pretreatment, an eye wipe test was performed on each unanesthetized animal just before the experiment. A drop of approximately 100 microgram per milliliter (μg/mL) capsaicin solution was instilled into an eye of the animal and the number of defensive wiping movements was counted. […]

[2] = Eye wipe test of capsaicin pretreatment effectiveness; conditions: drop of 100 μg/mL capsaicin solution in eye; rats pretreated with capsaicin 125 mg/kg s.c.; 16 rats
Description: as §1

[3] = test system: bladder rhythmic contraction; assay: Bladder rhythmic contraction with L6 spinal nerve stimulation after capsaicin pretreatment
Description: Female Sprague-Dawley rats weighing approximately 200-300 grams (g) were anesthetized with urethane (in particular, two injections, approximately 4 min apart, total 1.2 g urethane/kilogram (kg) rat). The anesthetized rats were maintained with a hot-water-circulating heating pad during the studies.
To record bladder contractions, a polyethylene cannula (IntraMedic PE50 tubing, Stoelting Co., Wood Dale, Ill.), was placed into the bladder of each of the rats via the urethra and the urethra was ligated to ensure an isovolumetric bladder. The urethral cannula was connected with a T connector and linked with a low volume transducer (ADInstrument MLT0380/D, Colorado Springs, Colo.). The signal was amplified through a DC amplifier (ADInstrument, ML119, Colorado Springs, Colo.). The other end of the T connector was linked to a 20 cubic centimeters (cc) syringe with a perfusion pump.
To deliver electrical stimulation, a wire electrode was placed under the L6 spinal nerves of each of the rats bilaterally. The dorsal skin around sacral and thoracic surface was shaved and a dorsal midline incision was made from approximately spinal nerve L3 to S2. A combination of sharp and blunt dissection was used to expose the left L6/S1 posterior interarticular process. The S1 transverse process was visualized and removed, and the L6 nerves were located caudal and medial to the sacroiliac junction and were then exposed distal to their emergence from the intervertebral foramina. Two bared portions of a teflon-coated, 40-gauge, stainless steel wire (Cooner Wire Co., Chatsworth, Calif.) were placed bilaterally under each of the L6 nerve. A silicone adhesive (Kwik-Cast, World Precision Instruments, Inc, Sarasota, Fla.) was applied to cover the wire around the nerve. The muscle and incision were closed with silk suture. The wire electrode and a needle electrode under the skin of the tail served as the stimulating cathode and the indifferent anode, respectively.
Biphasic pulses having a pulse width of about 0.1 ms and different intensities were used to stimulate the spinal nerve at frequencies ranging from 0.01 Hz to 100 Hz. A Grass S88 stimulator (Grass Technologies, West Warwick, R.I.) with an SIU5 stimulus isolator (Grass Technologies, West Warwick, R.I.) was used to generate stimulus pulses. Electrical stimulation of spinal nerves with pulses of sufficient intensity evoked hind-toe twitches and pelvic floor muscle contractions. In each rat, the motor threshold, defined by the lowest intensity to evoke any of those muscle contractions was tested. The rats with motor threshold over 0.4 mA were excluded from the study. The intensities of stimulation were given either at 0.6 mA or threshold intensity, which was adjusted until the muscle contraction was just discernible in each animal.
as §1, with “experiment.” for “experiment. A drop of approximately 100 microgram per milliliter (μg/mL) capsaicin solution was instilled into an eye of the animal and the number of defensive wiping movements was counted.”

[4] = capsaicin 125 mg/kg s.c. pretreatment 4 days before, mean control before stimulation, 8 rats, mean±SEM
[5] = capsaicin 125 mg/kg s.c. pretreatment, stimulation approximately 0.6 mA, 0.5 Hz

In the case of `COc1cc(CNC(=O)CCCC/C=C/C(C)C)ccc1O` [capsaicin, Capsaicin], the aversive behaviours thereafter ([1]; after the first 3-4 hours, capsaicin 125 mg/kg s.c. in divided doses over 2 days) is reported as “no aversive behaviors were observed”, the “behaviour following the first capsaicin injection” value ([1]; approximately 3-4 hours after first capsaicin injection (25 mg/kg s.c., hindlimb)) is reported as “signs of pain behaviors” and the “reaction in the eye wipe test (defensive wiping movements)” value [2] is reported as “no reaction”. For the same molecule, the “average amplitude of bladder contractions prior to neurostimulation” value [3, 4] was “approximately 19.24±1.89 mmHg”, the “mean frequency of bladder contractions prior to neurostimulation” value [3, 4] was “approximately 3.19±0.20 contractions per 5 minutes” and the “persistence of inhibition after stimulation was terminated (FIG. 12A)” value [3, 5] was “more than 20 minutes”. The “rhythmic bladder contractions during spinal nerve stimulation (FIG. 12A)” value [3, 5] was “substantially completely inhibited”, the “bladder contractions with spinal nerve stimulation at threshold intensity (FIG. 12B)” value ([3]; capsaicin 125 mg/kg s.c. pretreatment, threshold intensity about 0.01 mA, about 10 Hz, particularly after termination of stimulation) was “attenuated bladder contractions” and the “frequency of the bladder rhythmic contraction” value ([3]; capsaicin approximately 125 mg/kg s.c. pretreatment, stimulation approximately 0.6 mA, six rats, p<0.05 vs vehicle pretreated, two-way ANOVA (FIG. 13A)) was 18±14 % of control. The “mean frequency and amplitude of bladder contractions, capsaicin-treated versus vehicle-treated rats” value ([3]; prior to delivery of neurostimulation) was “did not differ” and the “effect on bladder rhythmic contraction of stimulation at threshold intensity (FIG. 13B)” value ([3]; threshold intensity approximately 0.01 mA, believed not statistically significant) was “trend of inhibitory effects”.
